Results on four compounds are retold here after patent US20170174649A1, “ESTERS OF ACETALS, COMPOSITION THEREOF, METHODS OF PREPARATION AND MAIN USES THEREOF IN COSMETIC AREA” (GLYCEROSOLUTION QUIMICA LTDA, priority 2015, published 2017).

Series [1] is described as follows: Solubility of sunscreens using cocoil glyceryl acetal as solubilizing agent. It counts as physicochemical. The following applies: solvent cocoil glyceryl acetal.
Series [2] in a line: Tests of ocular irritation (OECD and GHS). It counts as in vivo. The following applies: rules of OECD and GHS. The source says:
In the tests of ocular irritation, the product has been classified as non-irritating according to the rules of OECD and GHS.

A short description of series [3]: Tests of oral toxicity (GHS classification). As to conditions: rules of GHS. It counts as in vivo.
Series [4] is described as follows: Tests of skin irritation (OECD and GHS). It counts as in vivo. From the text: Two new batches of cocoil glyceryl acetal were sent to confirm the tests of dermal irritation.

Consider `COc1ccc(C(=O)CC(=O)c2ccc(C(C)(C)C)cc2)cc1` [4-(1,1-dimethylethyl)-4-methoxydibenzoylmethane], for which the “Solubility at 25° C.” value in series [1] is given as 14.0 grams/100 grams of cocoil glyceryl acetal.

As to `CCCCCCOC(=O)c1ccccc1C(=O)c1ccc(N(CC)CC)cc1O` [Diethylamino hydroxybenzoi hexyl benzoate], the “Solubility at 25° C.” value in series [1] is recorded as 18.0 grams/100 grams of cocoil glyceryl acetal.

In the case of `CCCCC(CC)COC(=O)c1ccc(Nc2nc(Nc3ccc(C(=O)OCC(CC)CCCC)cc3)nc(Nc3ccc(C(=O)OCC(CC)CCCC)cc3)n2)cc1` (stereo not shown) [Ethylhexyl Triazone], the “Solubility at 25° C.” value in series [1] is on record as 16.0 grams/100 grams of cocoil glyceryl acetal.

Consider cocoil glyceryl acetal, for which the Ocular irritation classification entry in series [2] was “non-irritating”. For the same compound, the Oral toxicity classification result in series [3] is recorded as “class 5 (non-toxic)”. Besides, the Skin irritation finding entry in series [4] (one of the tests) is given as “mild dermal irritation”. Moreover, the Skin irritation classification result in series [4] (two tests, rules of OECD and GHS) is “non-irritating”.
